The test system of the series is hDMFa myofibroblast cells.

Structures can show the parent of a compound that is named as a salt.

On to `CC(CN(C)C)CN1c2ccccc2CCc2ccccc21.O=C(O)/C=C\C(=O)O` (stereo not shown) [Cmpd 975, Trimipramine (maleate)], for which the “Compound Myofibroblast Cytotoxicity Activity” value was “++”. The entry for `Cc1nc(Nc2ncc(C(=O)Nc3c(C)cccc3Cl)s2)cc(N2CCN(CCO)CC2)n1.O` [Cmpd 328, Dasatinib Monohydrate] is “+++”; for `Cc1ncc(C[n+]2csc(CCO)c2C)c(N)n1.Cl.[Cl-]` [Cmpd 939, Thiamine HCl (Vitamin B1)] it is “++”; for `COc1cccc2c1cc([N+](=O)[O-])c1c(C(=O)O)cc3c(c12)OCO3` [Cmpd 130, Aristolochic Acid A] it is “++”.

As for `COC(=O)c1ccc2c(c1)NC(=O)/C2=C(\Nc1ccc(N(C)C(=O)CN2CCN(C)CC2)cc1)c1ccccc1` [Cmpd 716, Nintedanib (BIBF 1120)], the “Compound Myofibroblast Cytotoxicity Activity” value is recorded as “++++”. With `CC1=CC[C@@H]2C[C@H]1C2(C)C` [Cmpd 19, (1R)-(+)-α-Pinene], the “Compound Myofibroblast Cytotoxicity Activity” value was “+”. The entry for `CCOC(=O)C1=C(COCCN)NC(C)=C(C(=O)OC)C1c1ccccc1Cl` (stereo not shown) [Cmpd 111, Amlodipine Besylate] is “++++”. With `CO[C@]12C[C@@H](COC(=O)c3cncc(Br)c3)CN(C)[C@@H]1Cc1cn(C)c3cccc2c13` [Cmpd 707, Nicergoline] the entry was “++”; with `CC(C)c1nc(N(C)S(C)(=O)=O)nc(-c2ccc(F)cc2)c1/C=C/[C@@H](O)C[C@@H](O)CC(=O)[O-].CC(C)c1nc(N(C)S(C)(=O)=O)nc(-c2ccc(F)cc2)c1/C=C/[C@@H](O)C[C@@H](O)CC(=O)[O-].[Ca+2]` [Cmpd 842, Rosuvastatin Calcium], “+++”; with `CSc1ccc2c(c1)N(CCC1CCCCN1C)c1ccccc1S2` (stereo not shown) [Cmpd 940, Thioridazine HCl], “++++”. The entry for `Cc1ccnc(NS(=O)(=O)c2ccc(N)cc2)n1` [Cmpd 895, Sulfamerazine] is “+++”; for `CN1CCN(c2ccc(C(=O)Nc3n[nH]c4ccc(Cc5cc(F)cc(F)c5)cc34)c(NC3CCOCC3)c2)CC1` [Cmpd 419, Entrectinib] it is “+++”.

With `COc1ccc2[n-]c([S+]([O-])Cc3ncc(C)c(OC)c3C)nc2c1.[Na+]` (stereo not shown) [Cmpd 737, Omeprazole Sodium], the “Compound Myofibroblast Cytotoxicity Activity” value is recorded as “++”. With `Cc1c(S(=O)(=O)[O-])oc2c1C(=O)C(=O)c1c-2ccc2c1CCCC2(C)C.[Na+]` [Cmpd 914, Tanshinone IIA---sulfonic sodium], the “Compound Myofibroblast Cytotoxicity Activity” value is given as “++”. With `O=c1ccn([C@H]2C[C@H](O)[C@@H](CO)O2)c(=O)[nH]1` [Cmpd 47, 2-Deoxyuridine] the entry was “++”; with `CC[C@H]1OC(=O)[C@H](C)[C@@H](O[C@H]2C[C@@](C)(OC)[C@@H](O)[C@H](C)O2)[C@H](C)[C@@H](O[C@@H]2O[C@H](C)C[C@H](N(C)C)[C@H]2O)[C@](C)(OC)C[C@@H](C)C(=O)[C@H](C)[C@@H](O)[C@]1(C)O` [Cmpd 274, Clarithromycin], “+++”. With `Nc1cc[nH]c(=O)n1` [Cmpd 304, Cytosine] the entry was “++”; with `O=C(O)CC(=O)O` [Cmpd 631, Malonic acid], “++++”.

With `CCN1CCN(Cc2ccc(Nc3ncc(F)c(-c4cc(F)c5nc(C)n(C(C)C)c5c4)n3)nc2)CC1` [Cmpd 622, LY2835219 free base], the “Compound Myofibroblast Cytotoxicity Activity” value was “++++”. The entry for `O=C(O)c1cc(-c2ccccc2)nc2ccccc12` [Cmpd 265, Cinchophen] is “++”; for `O=P([O-])([O-])O.[Na+].[Na+]` [Cmpd 874, Sodium phosphate dibasic] it is “++++”.

With `CO/N=C(\C(=O)N[C@@H]1C(=O)N2C(C(=O)O)=C(COC(C)=O)CS[C@H]12)c1csc(N)n1` [Cmpd 233, Cefotaxime (sodium salt)], the “Compound Myofibroblast Cytotoxicity Activity” value is given as “+++”. With `Clc1ccc(CCC(Cn2ccnc2)Sc2c(Cl)cccc2Cl)cc1` (stereo not shown) [Cmpd 198, Butoconazole nitrate] the entry was “+++”. Take `Cc1cn(-c2cc(NC(=O)c3ccc(C)c(Nc4nccc(-c5cccnc5)n4)c3)cc(C(F)(F)F)c2)cn1` [Cmpd 712, Nilotinib monohydrochloride monohydrate]: the “Compound Myofibroblast Cytotoxicity Activity” value was “+++”.

`CC=CC(=O)N(CC)c1ccccc1C` [Cmpd 298, Crotamiton]: the “Compound Myofibroblast Cytotoxicity Activity” value is given as “++”. The entry for `CCc1ccc(CCOc2ccc(CC3SC(=O)NC3=O)cc2)nc1` (stereo not shown) [Cmpd 785, Pioglitazone HCl] is “+++”; for `O=C1CN(/N=C/c2ccc([N+](=O)[O-])o2)C(=O)N1` [Cmpd 720, Nitrofurantoin] it is “++++”; for `Cc1cccc(N(C)C(=S)Oc2ccc3ccccc3c2)c1` [Cmpd 956, Tolnaftate] it is “++++”. With `CNCCCC12CCC(c3ccccc31)c1ccccc12` [Cmpd 635, Maprotiline HCl] the entry was “+++”; with `CC(C)=C1C/C=C(\C)CC/C=C(\C)CC1=O` [Cmpd 482, Germacrone], “+++++”; with `[H]/N=C(\N/C(=N/[H])NCCCCCCNC(=N)NC(=N)Nc1ccc(Cl)cc1)Nc1ccc(Cl)cc1` [Cmpd 249, Chlorhexidine HCl], “+++++”. The entry for `O=C(O)CCCNC(=O)c1cccnc1` [Cmpd 783, Pikamilone] is “++”; for `O=Cc1ccc(CO)o1` [Cmpd 66] it is “++”. Regarding `NCCCS(=O)(=O)O` [Cmpd 961, Tramiprosate], the “Compound Myofibroblast Cytotoxicity Activity” value is on record as “+++++”.

For `CO[C@H]1C[C@@H]2CC[C@@H](C)[C@@](O)(O2)C(=O)C(=O)N2CCCC[C@H]2C(=O)O[C@H]([C@H](C)C[C@@H]2CC[C@@H](OCCO)[C@H](OC)C2)CC(=O)[C@H](C)/C=C(\C)[C@@H](O)[C@@H](OC)C(=O)[C@H](C)C[C@H](C)/C=C/C=C/C=C/1C` [Cmpd 446, Everolimus (RAD001)], the “Compound Myofibroblast Cytotoxicity Activity” value was “+++++”. With `O=[N+]([O-])O[C@@H]1CO[C@H]2[C@@H]1OC[C@@H]2O` [Cmpd 540, Isosorbide 5-mononitrate] the entry was “++”. With `Nc1cccc2c1C(=O)N(C1CCC(=O)NC1=O)C2=O` (stereo not shown) [Cmpd 789, Pomalidomide (CC-4047)] the entry was “++”; with beta-Alanine [Cmpd 174], “++++”; with `O=C(O)CCNC(=O)c1ccccc1` [Cmpd 177, Betamipron], “+++++”. With `C1CCc2nnnn2CC1` [Cmpd 770, Pentylenetetrazole] the entry was “++++”; with `Clc1ccc(C(Cn2ccnc2)OCc2ccc(Sc3ccccc3)cc2)c(Cl)c1` (stereo not shown) [Cmpd 452, Fenticonazole Nitrate], “++++”; with `CCCCOc1ccc(C(=O)CCN2CCCCC2)cc1` [Cmpd 398, Dyclonine HCl], “+++”. Turning to `COc1ccc2cc([C@H](C)C(=O)O)ccc2c1` [Cmpd 32, (S)-Naproxen], the “Compound Myofibroblast Cytotoxicity Activity” value is “++”. With `CCCCCCCCCCCCC/C=C/[C@@H](O)[C@@H](N)CO` [Cmpd 341, D-erythro-Sphingosine (synthetic)] the entry was “++”; with `CCCc1nc(C)c2c(=O)[nH]c(-c3cc(S(=O)(=O)N4CCN(CC)CC4)ccc3OCC)nn12` [Cmpd 996, Vardenafil], “++++”; with `Oc1c(Br)cc(Br)c2cccnc12` [Cmpd 194, Broxyquinoline], “+++”.

Turning to `COc1ccc2c(c1)C(=O)N(CCc1ccc(S(=O)(=O)NC(=O)NC3CCCCC3)cc1)C(=O)C2(C)C` [Cmpd 485, Gliquidone], the “Compound Myofibroblast Cytotoxicity Activity” value is on record as “++”. With `Nc1c2c(nc3ccccc13)CCCC2` [Cmpd 906, Tacrine hydrochloride] the entry was “++++”; with `Cl.N[C@H](C=O)[C@@H](O)[C@H](O)[C@H](O)CO` [Cmpd 23, (2S,3R,4S,5R)-2-Amino-3,4,5,6-tetrahydroxyhexanal hydrochloride], “++”; with `CC(=O)[C@H]1CC[C@H]2[C@@H]3CCC4=CC(=O)CC[C@]4(C)[C@H]3CC[C@]12C` [Cmpd 799, Progesterone], “+++”. With `CC(C)(c1ccc(O)cc1)c1ccc(O)cc1` [Cmpd 186, Bisphenol A] the entry was “++”.

For `CC(C)(C)c1cc(NC(=O)Nc2ccc(-c3cn4c(n3)sc3cc(OCCN5CCOCC5)ccc34)cc2)no1` [Cmpd 815, Quizartinib (AC220)], the “Compound Myofibroblast Cytotoxicity Activity” value is reported as “++++”.

Regarding `CC[C@H]1CN2CC[C@H]1C[C@@H]2[C@@H](O)c1ccnc2ccc(OC)cc12` [Cmpd 508, Hydroquinidine], the “Compound Myofibroblast Cytotoxicity Activity” value is “++”. The entry for `CCCCCCCCOc1ccccc1C(=O)Nc1ccc(C(=O)OCC[N+](C)(CC)CC)cc1` [Cmpd 741, Otilonium Bromide] is “+++++”; for `N[C@@H](Cc1c[nH]c2ccccc12)C(=O)O` [Cmpd 615, L-Tryptophan] it is “++”; for `O=C(O)C1=C(CSc2nnnn2CS(=O)(=O)O)CS[C@@H]2[C@H](NC(=O)[C@H](O)c3ccccc3)C(=O)N12` [Cmpd 232, Cefonicid (sodium salt)] it is “++++”. Take `N[C@@H](CCC(=O)O)C(=O)[O-].[Na+]` [Cmpd 584, L-Glutamic acid monosodium salt]: the “Compound Myofibroblast Cytotoxicity Activity” value was “++”. With `CN(C)CCC=C1c2ccccc2COc2ccccc21` [Cmpd 385, Doxepin (hydrochloride)] the entry was “++”.

Values taken from US20260102359A1, “COMBINATION TREATMENT OF DERMAL AND TRANSDERMAL FIBROTIC DISEASES, DISORDERS AND ASSOCIATED PAIN AND INFLAMMATION” (ERESINA, LLC, priority 2022, published 2026).
